{"source": "patent US20180020708A1", "about": "“GLUCOSYRINGIC ACID ANALOGS AS SWEETNESS PROFILE MODIFIERS” (PepsiCo, Inc., priority 2016, published 2018)", "key": {"tasters": {"system": "tasters", "assay": "Human tasting of sweet/flavor modifying ingredient in HFCS solution versus HFCS control", "assay_type": "in vivo", "protocol": "For testing the material as a sweet/flavor modifying ingredient, two samples were prepared: a 4° Brix high-fructose corn syrup (HFCS) control solution and a 4° Brix HFCS solution with a known concentration of test ingredient.\n4° Brix HFCS control solution was prepared by adding 50.89 grams of 78.60° Brix HFCS to 1000 g phosphoric acid base which was prepared by adding phosphoric acid dropwise into 1 L of Aquafina Water until pH 3.1 was obtained. pH was measured using a METTLER TOLEDO pH meter.\nIf any cloudiness persisted, the sample solution was passed through a paper filter. For some low soluble compounds, Branson 2800 Ultra Sonic Bath was used to dissolve the material. Solubility was confirmed by shining a laser pointer through the solution. If no diffraction was observed then it was assumed that the material was soluble.\nFor each test, 12-16 tasters were presented with these two (2) numbered samples and asked to note the sweet quality differences between the two samples. Tasters were also asked to comment on sweetness onset, sweetness linger, overall sugarlike sweetness and other qualities such as bitter taste, metallic note, astringency, cooling sensation, any offnotes and any associated flavors. Tasters were also asked to assess sample odor differences and provide any descriptions.\nTasters were asked to not to eat at least 1 hour before tasting and rinse with Aquafina water at least 5 times between tasting all samples.\nCompound 5 was added at 35 ppm to 4 Brix HFCS in phosphoric acid (as described above). This solution was compared with 4 Brix HFCS in phosphoric acid."}, "human tasting": {"system": "human tasting", "assay": "Human tasting of GSA with high potency sweeteners such as rebaudioside A", "assay_type": "in vivo", "settings": "pure form"}, "[1]": {"settings": "35 ppm in 4 Brix HFCS in phosphoric acid (pH 3.1) vs 4 Brix HFCS control"}}, "data": [{"compound": "COc1cc(C(=O)O)cc(OC)c1O[C@@H]1O[C@H](CO)[C@@H](O)[C@H](O)[C@H]1O", "note": "[Compound 5, Syringic acid 4-O-β-D-glucoside]", "values": [{"measurement": "overall sugarlike sweetness reported by tasters", "setting": "tasters; [1]", "result": "more sugar-like"}, {"measurement": "sweetness onset reported by tasters", "setting": "tasters; [1]", "result": "earlier onset"}, {"measurement": "sweet quality difference reported by tasters", "setting": "tasters; 35 ppm in 4 Brix HFCS in phosphoric acid (pH 3.1) vs 4 Brix HFCS control, majority of 12-16 tasters noted a difference", "result": "rounder sweetness"}, {"measurement": "overall sweetness of nutritive sweetener sweetened beverages", "setting": "tasters; pure form, human tasting, nutritive sweetener e.g. high-fructose corn syrup (HFCS)", "result": "effective in increasing the overall sweetness"}, {"measurement": "sweet quality of sweetened beverages", "setting": "tasters; pure form, human tasting, sweetened beverages", "result": "improving the sweet quality"}, {"measurement": "bitter, metallic and licorice off-notes of high potency sweeteners", "setting": "human tasting; e.g. 300 ppm solution of Rebaudioside A in phosphate buffer", "result": "decreasing bitter, metallic and licorice off-notes"}, {"measurement": "sweetness time-of-onset for high potency sweeteners", "setting": "human tasting; high potency sweeteners such as rebaudioside A", "result": "decreasing the sweetness time-of-onset"}]}]}
